Assay results taken from PMC10121968, “Fosgonimeton, a Novel Positive Modulator of the HGF/MET System, Promotes Neurotrophic and Procognitive Effects in Models of Dementia” (Neurotherapeutics, 2022).
Non-standard residues stand in square brackets, D forms with d. Residues, ends and D or L forms follow the SMILES beside them. *: point of attachment. Hexanoyl = CCCCCC(=O)*; Ahx = NCCCCCC(=O)O

Assays:
[1] = Fosgonimeton CNS distribution in rats; format: in vivo, rat; conditions: 12 mg/kg fosgonimeton SC
Description: Three male Sprague Dawley rats per time point were given 12 mg/kg fosgonimeton via SC injection. At 0.16, 0.5, and 1 h after dosing, animals were humanely killed and perfused with chilled saline. Brains were collected and dissected into the following brain regions: whole brain, striatum, olfactory bulb, hippocampus, cerebellum, cerebral cortex, and brainstem. Brain regions were homogenized and the exposures of fosgonimeton and fosgo-AM were determined by LC/MS/MS.

TNF-α = TNF-α release in LPS-challenged THP-1 macrophages (ELISA); format: cell-based, human; conditions: 1 µM, 20 min pretreatment, LPS 50 ng/mL 24 h, vs LPS + vehicle
Description: To determine the effect of fosgo-AM on LPS-induced cytokine release, we sought to determine the levels of interleukin-1β (IL-1β), interleukin-6 (IL-6), and tumor necrosis factor-α (TNF-α) in LPS-challenged THP-1–differentiated macrophages in the presence and absence of fosgo-AM. THP-1 monocytes were grown at 37 °C, 5% CO2 in Roswell Park Memorial Institute (RPMI) medium + 10% FBS until approximately 80% confluent. Cells were seeded in polystyrene-treated 96-well cell culture plates at approximately 50,000 cells/well in 100-µL complete media. 100 µL Phorbol myristate acetate was then added to each well for a final concentration of 100 ng/mL. The plate was then incubated for 3 days at 37 °C, 5% CO2 to prime the monocytes into macrophages. […] For cytokine quantification, cell culture supernatant was assayed by HTRF kits to assess levels of IL-1β (Human IL-1β kit, #62HIL1BPEG, Cisbio, Codolet, France) and IL-6 (Human IL-6 kit, 62HIL06PET, Cisbio, Codolet, France), and by ELISA (Human TNF-α ELISA kit, KHC3011, ThermoFisher, Waltham, Massachusetts) to determine the levels of TNF-α. […] Fluorescence emission at 2 different wavelengths (665 nm and 620 nm) were measured on an Envision plate reader (PerkinElmer, Waltham, Massachusetts), and HTRF ratio of the acceptor and donor emission signals for each well was calculated as follows: HTRF ratio = (665 nm/620 nm) × 10,000. […]

time to maximum concentration (Tmax) in brain regions ([1]; all regions): 10 min | Cmax, ng/g ± SEM ([1]; brainstem): 58.3 ± 11.3 ng/g | Tmax ([1]; brainstem): 9.6 min | Cmax, ng/g ± SEM ([1]; cerebellum): 23.8 ± 4.1 ng/g | Tmax ([1]; cerebellum): 9.6 min | Cmax, ng/g ± SEM ([1]; cerebral cortex): 36.5 ± 12.0 ng/g | Tmax ([1]; cerebral cortex): 9.6 min | Cmax, ng/g ± SEM ([1]; hippocampus): 49.8 ± 30.5 ng/g | Tmax ([1]; hippocampus): 9.6 min | Cmax, ng/g ± SEM ([1]; olfactory bulb): 43.7 ± 7.3 ng/g | Tmax ([1]; olfactory bulb): 9.6 min | Cmax, ng/g ± SEM ([1]; striatum): 24.1 ± 12.8 ng/g | Tmax ([1]; striatum): 9.6 min | Cmax, ng/g ± SEM ([1]; whole brain): 31.9 ± 23.8 ng/g | Tmax ([1]; whole brain): 9.6 min
SMILES: CCCCCC(=O)N[C@@H](Cc1ccc(O)cc1)C(=O)N[C@H](C(=O)NCCCCCC(N)=O)[C@@H](C)CC [fosgo-AM] (Hexanoyl-Tyr-Ile-[Ahx]-NH2)
TNF-α release (TNF-α): significant decrease
